The subject of this assay is PC-3-KQ cells. Description: 3D spheroid invasion assay and screening of FDA-approved drugs. The note with it: compared to vehicle control; for activity at 0.01 µM / activity at 0.1 µM / activity at 1 µM / activity at 10 µM: Homo sapiens, 72 h, read-out: Invasion rates (%) of each drug’s multiple concentrations. The format is cell-based, human. In a few lines: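 Cells were clustered into spheroids by centrifugation and grown 3 days, then embedded in matrigel-medium containing drug on day 4 and cultured another 3 days. Drugs were screened at 10 μM first, then at 0–10 μM, in duplicate wells. Invasion area is total area minus core sphere area from phase-contrast images.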

Setting [1] is: 0.01 μM (first column so headed), secondary screening of 87 hit compounds (Table S1).
Setting [2] is: 0.01 μM (first column so headed), third screening of 25 hit compounds (Table S2).
Where [3] appears, read: 0.01 μM (second column so headed), secondary screening of 87 hit compounds (Table S1).
Setting [4] is: 0.01 μM (second column so headed), third screening of 25 hit compounds (Table S2).
The mark [5] stands for this setting: 0.1 μM, secondary screening of 87 hit compounds (Table S1).
Setting [6] is: 0.1 μM, third screening of 25 hit compounds (Table S2).
Setting [7] is: 1 μM, secondary screening of 87 hit compounds (Table S1).
Setting [8] is: 1 μM, third screening of 25 hit compounds (Table S2).
Where [9] appears, read: 10 μM, secondary screening of 87 hit compounds (Table S1).
The mark [10] stands for this setting: 10 μM, third screening of 25 hit compounds (Table S2).

Like-named read-outs stand apart in the source and are kept apart here.

This note sets out measurements from article PMC9945734 (BMC Medicine, 2023).

On to `O=C(N/N=C/c1ccc([N+](=O)[O-])o1)c1ccc(O)cc1` [Nifuroxazide], for which the activity at 0.01 µM worked out at 68.1% under setting [1], 97.2% under setting [2], 86.4% under setting [3] and 94.3% under setting [4]. Besides, the activity at 0.1 µM under setting [5] came out at 50.2% and the activity at 0.1 µM under setting [6] turned out to be 86.5%. Further, the activity at 1 µM under setting [7] turned out to be 9.13% and the activity at 1 µM under setting [8] came out at 7.31%. Moreover, the activity at 10 µM is, setting by setting: under setting [9], 2.06%; under setting [10], 1.51%.

Take `CNC[C@H](O)[C@@H](O)[C@H](O)[C@H](O)CO.Nc1nc(-n2cc(C(=O)O)c(=O)c3cc(F)c(N4CC(O)C4)c(Cl)c32)c(F)cc1F` [Delafloxacin (meglumine)]: the “Invasion rates (%) of each drug’s multiple concentrations (μM)” value (shortened to “Invasion rates (%)”) was found to be 85.63% under setting [1]; 93.02% under setting [2]; 84.75% under setting [3]; 86.37% under setting [4]; 73.78% under setting [5]; 82.73% under setting [6]. Besides, the “Invasion rates (%)” value is, setting by setting: under setting [7], 2.08%; under setting [8], 1.96%; under setting [9], 1.54%; under setting [10], 0.81%.

As for `CC(C)C[C@H](NC(=O)[C@H](Cc1ccccc1)NC(=O)c1cnccn1)B(O)O` [Bortezomib], the activity at 0.01 µM under setting [1] came to 29.5%, the activity at 0.01 µM under setting [2] worked out at 84.3%, the activity at 0.01 µM under setting [3] was 75.3% and the activity at 0.01 µM under setting [4] stood at 92.8%. The activity at 0.1 µM under setting [5] was found to be 5.79% and the activity at 0.1 µM under setting [6] amounted to 66.1%. Besides, the activity at 1 µM runs as follows: under setting [7], 4.37%; under setting [8], 35.3%. The activity at 10 µM amounted to 0.98% under setting [9] and 9.72% under setting [10].

Consider `Cc1ncc([N+](=O)[O-])n1CC(O)CN1CCOCC1` (centres unmarked) [Morinidazole], for which the activity at 0.01 µM under setting [1] came to 83.3% and the activity at 0.01 µM under setting [3] was determined as 89.7%. Also, the activity at 0.1 µM under setting [5] was 75.5%. In addition, the activity at 1 µM under setting [7] is 60%. For the same compound, under setting [9], the activity at 10 µM turned out to be 4%.

Take `C/C(=C\C(=O)OCCCCCCCCC(=O)O)C[C@@H]1OC[C@H](C[C@@H]2O[C@H]2[C@@H](C)[C@H](C)O)[C@@H](O)[C@H]1O` [Mupirocin]: the activity at 0.01 µM under setting [1] was determined as 95.2% and the activity at 0.01 µM under setting [3] was 98%. Besides, the activity at 0.1 µM under setting [5] was 95.3%. Besides, under setting [7], the activity at 1 µM came to 80%. Further, the activity at 10 µM under setting [9] was 5.95%.

For the compound `CCS(=O)(=O)CCn1c([N+](=O)[O-])cnc1C` [Tinidazole], the activity at 0.01 µM came out at 78.9% under setting [1], 89.2% under setting [2], 90.7% under setting [3] and 88.2% under setting [4]. Also, the activity at 0.1 µM by setting is: under setting [5], 47.1%; under setting [6], 90.2%. The activity at 1 µM by setting is: under setting [7], 6.59%; under setting [8], 8.88%. Also, the activity at 10 µM came to 2.67% under setting [9] and 2.87% under setting [10].

Take `Cc1nc(Nc2ncc(C(=O)Nc3c(C)cccc3Cl)s2)cc(N2CCN(CCO)CC2)n1.Cl` [Dasatinib (hydrochloride)]: the “Invasion rates (%)” value by setting is: under setting [1], 54.32%; under setting [2], 99.47%; under setting [3], 60.68%; under setting [4], 101.09%; under setting [5], 53.75%; under setting [6], 92.00%. For the same compound, the “Invasion rates (%)” value is, setting by setting: under setting [7], 49.82%; under setting [8], 87.73%; under setting [9], 38.63%; under setting [10], 56.83%.

Consider `COc1ccc2c(O[C@@H]3C[C@H]4C(=O)N[C@]5(C(=O)NS(=O)(=O)C6CC6)C[C@H]5/C=C\CCCCN(C)C(=O)[C@@H]4C3)cc(-c3nc(C(C)C)cs3)nc2c1C` [Simeprevir], for which the activity at 0.01 µM worked out at 98.5% under setting [1] and 101% under setting [3]. The activity at 0.1 µM under setting [5] amounted to 97.2%. Also, the activity at 1 µM under setting [7] came out at 96.2%. Also, the activity at 10 µM under setting [9] was found to be 38.8%.

Regarding Gramicidin, the “Invasion rates (%)” value by setting is: under setting [3], 107.53%; under setting [5], 94.19%; under setting [7], 93.53%; under setting [9], 0.41%.

Turning to `CCc1c(Cl)c(O)c(Cl)c(O)c1C(=O)O[C@H]1[C@H](O)[C@H](OC)[C@H](OC/C2=C\C=C\C[C@H](O)/C(C)=C/[C@H](CC)[C@@H](O[C@@H]3OC(C)(C)[C@@H](OC(=O)C(C)C)[C@H](O)[C@@H]3O)/C(C)=C/C(C)=C/C[C@@H]([C@@H](C)O)OC2=O)O[C@@H]1C` [Fidaxomicin], the activity at 0.01 µM came to 100% under setting [1] and 103% under setting [3]. Further, the activity at 0.1 µM under setting [5] was determined as 99.5%. Besides, under setting [7], the activity at 1 µM was 96%. Besides, under setting [9], the activity at 10 µM is 41.5%.

Take `C[C@H]1c2cccc(O)c2C(O)=C2C(=O)[C@]3(O)C(O)=C(C(N)=O)C(=O)[C@@H](N(C)C)[C@@H]3[C@@H](O)[C@@H]21` [Doxycycline (hyclate)]: the “Invasion rates (%)” value is on record as 91.64% under setting [1]; 101.94% under setting [2]; 100.52% under setting [3]; 98.24% under setting [4]; 74.92% under setting [5]; 93.64% under setting [6]. Also, the “Invasion rates (%)” value is given as 3.13% under setting [7], 5.76% under setting [8], 1.59% under setting [9] and 1.58% under setting [10].

For the compound `Cn1nnc(-c2ccc(-c3ccc(N4C[C@H](COP(=O)(O)O)OC4=O)cc3F)cn2)n1` [Tedizolid (phosphate)], the activity at 0.01 µM runs as follows: under setting [1], 89%; under setting [2], 99.8%; under setting [3], 91.7%; under setting [4], 96.1%. Besides, the activity at 0.1 µM is 70.7% under setting [5] and 90.7% under setting [6]. The activity at 1 µM runs as follows: under setting [7], 3.59%; under setting [8], 3.28%. In addition, the activity at 10 µM by setting is: under setting [9], 3.35%; under setting [10], 2.87%.

For the compound `COc1cc(Nc2c(C#N)cnc3cc(OCCCN4CCN(C)CC4)c(OC)cc23)c(Cl)cc1Cl` [Bosutinib], the activity at 0.01 µM is, setting by setting: under setting [1], 90.7%; under setting [3], 97.2%. The activity at 0.1 µM under setting [5] amounted to 87.3%. The activity at 1 µM under setting [7] came out at 69.9%. Moreover, the activity at 10 µM under setting [9] was 10.1%.

On to `O.O.O.O.O.O.O.O=C1N=C([O-])CN1/N=C/c1ccc(-c2ccc([N+](=O)[O-])cc2)o1.O=C1N=C([O-])CN1/N=C/c1ccc(-c2ccc([N+](=O)[O-])cc2)o1.[Na+].[Na+]` [Dantrolene (sodium hemiheptahydrate)], for which the “Invasion rates (%)” value under setting [1] was found to be 102.88%; the “Invasion rates (%)” value under setting [3] came out at 101.64%; the “Invasion rates (%)” value under setting [5] was 90.54%; the “Invasion rates (%)” value under setting [7] was 82.27%; the “Invasion rates (%)” value under setting [9] was found to be 29.15%.
